One data set deals with desmolase. Put plainly: Inhibition of desmolase (cholesterol side chain cleavage, SCC, activity). Format: biochemical. As to conditions: mitochondrial fraction from human placenta or bovine adrenals, 37° C., 30 min; read-out: DESMOLASE IC-50. As to the method:
Incubations were carried out in 1,5 ml Eppendorf plastic robes, and an Eppendoff shaker, centrifuge and incubator were used as a unit. […] Controls contained all the above substances but the enzyme preparation was inactivated prior to the incubation by the addition of 900 μl of methanol. The mitochondrial fraction (1 mg protein) from human placenta or bovine adrenals was used as a source of enzyme. After 30 min incubation at 37° C., the reaction was terminated by the addition of 900 μl of methanol; 1500 dpm of marker ^14 C-4-pregnenolone was added to each incubate and the robes were vigorously shaken. […] The column was washed with one ml of 75% methanol and then with 3 ml of 80% methanol The 80% methanol eluate was run into the counting vial and 10 ml of scintillation liquid was added. Radioactivity was counted using a double-label program on a liquid scintillation counter (LKB RackBeta).
In inhibition experiments, the substance (final concentration range from 1 to 1000 μM) was added into incubation mixture in a volume of 10-20 μl, usually as methanol or ethanol solution. The same volume of the solute was added into control incubation vial.

A further data set has as its target T1, human aromatase (Homo sapiens, UniProt P11511).
T1 construct: The enzyme preparation was used without further purification; from tissue; host or cells: human placenta, microsomal fraction (100000×g precipitate)
T1 sequence (P11511 1-503): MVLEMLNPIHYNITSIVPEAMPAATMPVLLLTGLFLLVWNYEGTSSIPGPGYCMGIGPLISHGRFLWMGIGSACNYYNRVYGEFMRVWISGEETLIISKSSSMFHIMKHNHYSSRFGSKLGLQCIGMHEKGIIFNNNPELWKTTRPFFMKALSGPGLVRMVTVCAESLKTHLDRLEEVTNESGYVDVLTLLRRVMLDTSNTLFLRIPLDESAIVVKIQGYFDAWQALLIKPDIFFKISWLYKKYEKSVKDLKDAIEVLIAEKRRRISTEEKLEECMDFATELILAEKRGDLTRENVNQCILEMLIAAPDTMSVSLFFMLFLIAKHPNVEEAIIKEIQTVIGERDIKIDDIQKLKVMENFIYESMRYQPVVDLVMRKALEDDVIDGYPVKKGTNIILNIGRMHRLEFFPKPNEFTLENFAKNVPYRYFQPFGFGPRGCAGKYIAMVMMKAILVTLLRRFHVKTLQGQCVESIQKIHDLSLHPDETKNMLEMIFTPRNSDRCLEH
Kind of data set: Inhibition of human aromatase (3H2O release from 1,2[3H]-androstene-3,17-dione, human placenta microsomes). Format: biochemical. Conditions: human placental microsomes, 37° C., 40 min; read-out: AROMATASE IC-50. As to the method:
Human aromatase enzyme was used. The enzyme was prepared from human placenta, which is rich of the enzyme. Microsomal fraction (100000×g precipitate) was prepared by centrifugation. The enzyme preparation was used without further purification. Test compounds listed in Table 1 were added together with 100000 dpm of 1,2[^3 H]-androstene-3,17-dione and NADPH generating system. The concentrations of the test compounds were 0.001; 0.01; 0.1 and 1.0 mM. The incubation was carried out at 37° C. for 40 min. […] Radioactivity was counted by a liquid scintillation counter. Aromatase inhibition was evaluated by comparing the ^3 H2 O-radioactivity of inhibitor treated samples to controls containing no inhibitor. IC-50 values were calculated as concentrations which inhibited the enzyme activity 50%.

Data set [1] in a line: Acute toxicity, LD50, oral, in mice. It counts as in vivo. As to conditions: young adult female NMRI mice. The source says:
[…]. The administration of the test compound was oral.

Some results are limits rather than exact numbers.

The values below come from patent US5703109A, “Selective aromatase inhibiting compounds” (Oy; Orion-yhtyma, priority 1992, dated 1997).

For the compound `N#Cc1ccc(C(C(O)CCc2ccc(F)cc2)n2cncn2)cc1` (single isomer, unassigned) [Compound 5, 1-[1-(4-cyanophenyl)-4-(4-fluorophenyl)-2-hydroxybutyl]-1,2,4-triazole, diastereomer a + d], the IC50 on desmolase is over 1000 µM; at human aromatase it was 0.95 µM. In the case of `N#Cc1ccc(C(C(O)CCc2ccc(F)cc2)n2ccnc2)cc1` (single isomer, unassigned) [Compound 2, 1-[1-(4-cyanophenyl)-4-(4-fluorophenyl)-2-hydroxybutyl]-1H-imidazole, diastereomer a + d], the IC50 at desmolase was determined as 49 µM; on human aromatase, 0.18 µM. For the compound `N#Cc1ccc(C(=CCc2ccc(F)cc2)n2cncn2)cc1` (single isomer, unassigned; isomer b) [Compound 8, 1-[1-(4-cyanophenyl)-3-(4-fluorophenyl)-1-propenyl]-1,2,4-triazole, isomer b], the IC50 at desmolase is 165 µM. Same read-out and setting: the figure for `N#Cc1ccc(C(CCCc2ccc(F)cc2)n2ccnc2)cc1` (centres unmarked) [Compound 1, 1-[1-(4-cyanophenyl)-4-(4-fluorophenyl)butyl]-1H-imidazole] is 17 µM.

With `N#Cc1ccc(C(C(O)Cc2ccc(F)cc2)n2cncn2)cc1` (single isomer, unassigned) [Compound 4, 1-[1-(4-cyanophenyl)-3-(4-fluorophenyl)-2-hydroxypropyl]-1,2,4-triazole, diastereomer a + d], the figures for the IC50 on desmolase and on human aromatase were over 1000 µM and 0.26 µM, respectively. The “Acute toxicity (LD50 determination): tolerability of the highest dose tested” value in data set [1] (highest dose tested 400 mg/kg) is listed as “well tolerated”. In addition, in data set [1] (up to 400 mg/kg), the “Acute toxicity (LD50 determination): adverse effects” value was “No adverse effects were seen”. As to `N#Cc1ccc(C(CC(O)c2ccc(F)cc2)n2cncn2)cc1` (centres unmarked) [Compound 6, 1-[1-(4-cyanophenyl)-3-(4-fluorophenyl)-3-hydroxypropyl]-1,2,4-triazole], the IC50 is 380 µM on desmolase and 0.3 µM on human aromatase. On to `N#Cc1ccc(C(O)(CCc2ccc(F)cc2)c2cncs2)cc1` (centres unmarked) [Compound 9, 5-[1-(4-cyanophenyl)-3-(4-fluorophenyl)-1-hydroxypropyl]thiazole], for which the IC50 is 300 µM at desmolase and 0.28 µM at human aromatase. Regarding `N#Cc1ccc(C(C(=O)CCc2ccc(F)cc2)n2cncn2)cc1` (centres unmarked) [Compound 7, 1-[1-(-4-cyanophenyl)-4-(4-fluorophenyl)-2-oxobutyl]-1,2,4-triazole], the IC50 at desmolase came to 172 µM; on human aromatase it was 0.9 µM. As to `N#Cc1ccc(C(=CCCc2ccc(F)cc2)n2cncn2)cc1` (single isomer, unassigned; isomer b) [Compound 3, 1-[1-(4-cyanophenyl)-4-(4-fluorophenyl)-1-butenyl]-1,2,4-triazole, isomer b], the IC50 at desmolase was 300 µM.
